System: bacterial growth
Experiment: Maximum PFNA experiment, image processing of bacterial growth (FIG. 6)
Assay type: cell-based
Conditions: FIG. 6, images at T=0, 10, 80 hrs

O=C(O)C(F)(F)C(F)(F)C(F)(F)C(F)(F)C(F)(F)C(F)(F)C(F)(F)C(F)(F)F [PFNA Solution, Perfluorononanoic acid (PFNA)]
bacterial growth with increasing PFNA concentration: slows bacterial growth

Reference: patent US20210332408A1, “SYSTEMS AND METHODS FOR OPTIMIZATION OF ENZYMES” (Vader Nanotechnologies Inc., priority 2020, published 2021)
